The test has as its target T1, human RNR (histidine tagged human M1 and human M2 proteins) (Homo sapiens, UniProt P23921).
T1 construct: made in house; host or cells: Escherichia coli
T1 sequence (P23921 1-792): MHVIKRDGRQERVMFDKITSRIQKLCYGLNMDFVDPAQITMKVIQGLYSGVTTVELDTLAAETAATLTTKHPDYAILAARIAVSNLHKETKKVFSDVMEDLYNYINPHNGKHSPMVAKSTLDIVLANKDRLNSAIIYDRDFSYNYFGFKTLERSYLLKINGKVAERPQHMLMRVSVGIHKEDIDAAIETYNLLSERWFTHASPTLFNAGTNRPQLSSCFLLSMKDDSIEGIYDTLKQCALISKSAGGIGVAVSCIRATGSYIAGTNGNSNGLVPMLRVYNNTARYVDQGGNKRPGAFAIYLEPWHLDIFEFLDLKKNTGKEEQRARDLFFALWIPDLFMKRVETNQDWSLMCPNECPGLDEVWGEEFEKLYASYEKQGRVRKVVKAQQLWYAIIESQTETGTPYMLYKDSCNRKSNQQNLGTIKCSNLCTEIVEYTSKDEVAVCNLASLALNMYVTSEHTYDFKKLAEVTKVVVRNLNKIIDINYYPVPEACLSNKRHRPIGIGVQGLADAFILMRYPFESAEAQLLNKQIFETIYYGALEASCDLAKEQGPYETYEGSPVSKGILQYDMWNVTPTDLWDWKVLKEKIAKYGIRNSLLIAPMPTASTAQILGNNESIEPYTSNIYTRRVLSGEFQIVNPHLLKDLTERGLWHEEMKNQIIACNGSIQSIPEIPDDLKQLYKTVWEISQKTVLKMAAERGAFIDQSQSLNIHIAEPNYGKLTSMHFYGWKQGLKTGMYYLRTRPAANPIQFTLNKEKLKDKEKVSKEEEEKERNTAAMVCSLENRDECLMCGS
As to the kind of experiment: Human RNR inhibition effect (dCDP formation from CDP). In kind it is biochemical. The note with it: 10 μM CDP, 37° C. for 30 minutes, read-out: RNR inhibitory activity IC50. The protocol:
The inhibitory activity against the ribonucleotide reduction reaction (RNR inhibitory activity) of the Example compound was determined by measuring the formation of deoxycytidine diphosphate (hereinafter referred to as dCDP) from cytidine diphosphate (hereinafter referred to as CDP) by the following method.
Human M1 subunit (isoform 1, GenBank accession No: NM_001033), to which a histidine tag is fused at the amino terminus, and human M2 subunit (mutant lacking amino terminal 59 amino acids of isoform 2, GenBank accession No: NM_001034), to which a histidine tag is fused, were overexpressed in Escherichia coli and were solubilized after collection, and histidine tagged human M1 and histidine tagged human M2 proteins were purified on a nickel chelate column. A mixture of the histidine tagged human M1 and histidine tagged human M2 proteins was used as RNR in the ribonucleotide reduction reaction. [to]
First, Example compounds were serially diluted with DMSO. Next, human M1 protein and human M2 protein were added to a 0.02% aqueous albumin solution derived from fetal bovine serum, a DMSO solution of the Example compound or the control DMSO solution (final concentration of DMSO was 1%) was added, and the mixture was allowed to stand for 20 minutes. Thereafter, the reaction buffer [50 mM HEPES buffer (pH 7.2) at the final concentration, 4 mM magnesium acetate at the final concentration, 100 mM potassium chloride at the final concentration, 6 mM dithiothreitol at the final concentration, 2 mM adenosine triphosphate at the final concentration, 0.24 mM nicotinamide adenine dinucleotide phosphate at final concentration] and 10 μM CDP at the final concentration were added and incubated at 37° C. for 30 minutes to perform ribonucleotide reduction reaction. Immediately after the reaction, the reaction was stopped by heating at 100° C. for 15 minutes, followed by centrifugation at 10,000 rpm for 10 minutes. After the centrifugation, a portion (5 μL) of the resulting supernatant was analyzed with a high performance liquid chromatography (Shimadzu Corporation, Prominence) using Shim-pack XR-ODS (manufactured by Shimadzu GLC Co., 3.0×100 mm).

IC50 data for 22 compounds are collected here from patent publication US20200405697A1, “Antitumor Agent” (Taiho Pharmaceutical Co., Ltd, priority 2017, published 2020).

As usually defined, the IC50 is the concentration that inhibits the measured activity by half.

Consider `Cc1ccc(F)c([C@@H](C)[C@H](NS(=O)(=O)c2cc([N+](=O)[O-])c(Cl)cc2C(N)=O)c2n[nH]c(=O)o2)c1C` [Example 262, 5-chloro-2-(N-((1S,2R)-2-(6-fluoro-2,3-dimethylphenyl)-1-(5-oxo-4,5-dihydro-1,3,4-oxadiazol-2-yl)propyl)sulfamoyl)-4-nitrobenzamide], for which the half-inhibitory concentration (IC50) came to 130 nM.
The value for `CCn1cc(-c2ccc(F)c([C@@H](C)[C@H](NS(=O)(=O)c3ccc(Cl)cc3OC)c3n[nH]c(=O)o3)c2C)cn1` [Example 310, 4-chloro-N-((1S,2R)-2-(3-(1-ethyl-1H-pyrazol-4-yl)-6-fluoro-2-methylphenyl)-1-(5-oxo-4,5-dihydro-1,3,4-oxadiazol-2-yl)propyl)-2-methoxybenzenesulfonamide] was 170 nM; that for `CC(O)c1nc(S(=O)(=O)N[C@H](c2n[nH]c(=O)o2)[C@H](C)c2cccc3c2CCC3)ccc1Cl` (stereo partly drawn) [Example 202, 5-chloro-N-((1S,2R)-2-(2,3-dihydro-1H-inden-4-yl)-1-(5-oxo-4,5-dihydro-1,3,4-oxadiazol-2-yl)propyl)-6-(1-hydroxyethyl)pyridine-2-sulfonamide] was 400 nM; that for `COC(=O)c1c(F)ccc(S(=O)(=O)N[C@H](c2n[nH]c(=O)o2)[C@H](C)c2c(F)ccc(C)c2C)c1F` [Example 178, methyl 2,6-difluoro-3-(N-((1S,2R)-2-(6-fluoro-2,3-dimethylphenyl)-1-(5-oxo-4,5-dihydro-1,3,4-oxadiazol-2-yl)propyl)sulfamoyl)benzoate] was 170 nM.
The result for `Cc1ccc(F)c([C@@H](C)[C@H](NS(=O)(=O)c2ccc(Cl)c(C(=O)N3CC4CCC(C3)O4)n2)c2n[nH]c(=O)o2)c1C` [Example 117, 6-(8-oxa-3-azabicyclo[3.2.1]octane-3-carbonyl)-5-chloro-N-((1S,2R)-2-(6-fluoro-2,3-dimethylphenyl)-1-(5-oxo-4,5-dihydro-1,3,4-oxadiazol-2-yl)propyl)pyridine-2-sulfonamide] reads 30 nM; that for `Cc1c(Br)ccc(F)c1[C@@H](C)[C@H](NS(=O)(=O)c1ccc(Cl)c2c1OCCC2O)c1n[nH]c(=O)o1` (single isomer, unassigned) [Example 243A], 70 nM.
The result for `Cc1c(Br)ccc(F)c1[C@@H](C)[C@H](NS(=O)(=O)c1ccc(F)c2c1OCCC2(C)O)c1n[nH]c(=O)o1` (single isomer, unassigned) [Example 227A] reads 50 nM; that for `COc1cc(Cl)ccc1S(=O)(=O)N[C@H](c1n[nH]c(=O)o1)[C@H](C)c1c(F)ccc(-c2cc(F)cc(F)c2)c1C` [Example 299, 4-chloro-2-methoxy-N-((1S,2R)-1-(5-oxo-4,5-dihydro-1,3,4-oxadiazol-2-yl)-2-(3′,4,5′-trifluoro-2-methyl-[1,1′-biphenyl]-3-yl)propyl)benzenesulfonamide], 940 nM.
In the case of `Cc1c(Cl)ccc(F)c1[C@@H](C)[C@H](NS(=O)(=O)c1ccc(Cl)c2c1OCCC2(C)O)c1n[nH]c(=O)o1` (single isomer, unassigned) [Example 209B], the half-maximal inhibitory concentration (IC50) is 180 nM.
The result for `C[C@H](c1c(F)ccc2ccccc12)[C@H](NS(=O)(=O)c1ccc(Cl)c2c1OCCC2O)c1n[nH]c(=O)o1` (single isomer, unassigned) [Example 234A] reads 310 nM.
With `Cc1c(F)ccc(F)c1[C@@H](C)[C@H](NS(=O)(=O)c1ccc(Cl)cc1C(N)=O)c1n[nH]c(=O)o1` [Example 28, 5-chloro-2-(N-((1S,2R)-2-(3,6-difluoro-2-methylphenyl)-1-(5-oxo-4,5-dihydro-1,3,4-oxadiazol-2-yl)propyl)sulfamoyl)benzamide], the IC50 was 500 nM.
As to `Cc1c(Cl)ccc(F)c1[C@@H](C)[C@H](NS(=O)(=O)c1ccc(Cl)c2c1OCCC2(C)N)c1n[nH]c(=O)o1` (single isomer, unassigned) [Example 330A], the IC50 stood at 120 nM.
The result for `Cc1ccc(S(=O)(=O)N[C@H](c2n[nH]c(=O)o2)[C@H](C)c2c(F)ccc(C)c2C)cc1` [Example 151, N-((1S,2R)-2-(6-fluoro-2,3-dimethylphenyl)-1-(5-oxo-4,5-dihydro-1,3,4-oxadiazol-2-yl)propyl)-4-methylbenzenesulfonamide] reads 410 nM.
The result for `Cc1ccc(F)c([C@@H](C)[C@H](NS(=O)(=O)c2ccc(Cl)cc2C(=O)N2CCC2)c2n[nH]c(=O)o2)c1C` [Example 247, 2-(azetidine-1-carbonyl)-4-chloro-N-((1S,2R)-2-(6-fluoro-2,3-dimethylphenyl)-1-(5-oxo-4,5-dihydro-1,3,4-oxadiazol-2-yl)propyl)benzenesulfonamide] reads 410 nM; that for `CC#CC(O)(C#CC)c1ccc(C(N)=O)c(S(=O)(=O)N[C@H](c2n[nH]c(=O)o2)[C@H](C)c2c(F)ccc(C)c2C)c1` [Example 199], 350 nM; that for `Cc1ccc(F)c([C@@H](C)[C@H](NS(=O)(=O)c2ccc(Br)cc2OC(F)(F)F)c2n[nH]c(=O)o2)c1C` [Example 338, 4-bromo-N-((1S,2R)-(6-fluoro-2,3-dimethylphenyl)-1-(5-oxo-4,5-dihydro-1,3,4-oxadiazol-2-yl)propyl)-2-(trifluoromethoxy)benzenesulfonamide], 100 nM.
The result for `Cc1ccc(F)c([C@@H](C)[C@H](NS(=O)(=O)c2ccc(Cl)cc2C(C)O)c2n[nH]c(=O)o2)c1C` (stereo partly drawn) [Example 236, 4-chloro-N-((1S,2R)-2-(6-fluoro-2,3-dimethylphenyl)-1-(5-oxo-4,5-dihydro-1,3,4-oxadiazol-2-yl)propyl)-2-(1-hydroxyethyl)benzenesulfonamide] reads 380 nM; that for `Cc1ccc(F)c([C@@H](C)[C@H](NS(=O)(=O)c2ccc(Cl)c3cccnc23)c2n[nH]c(=O)o2)c1C` [Example 153, 5-chloro-N-((1S,2R)-2-(6-fluoro-2,3-dimethylphenyl)-1-(5-oxo-4,5-dihydro-1,3,4-oxadiazol-2-yl)propyl)quinoline-8-sulfonamide], 110 nM.
In the case of `Cc1ccc(F)c([C@@H](C)[C@H](NS(=O)(=O)c2ccc(Cl)c(C#N)n2)c2n[nH]c(=O)o2)c1C` [Example 105, 5-chloro-6-cyano-N-((1S,2R)-2-(6-fluoro-2,3-dimethylphenyl)-1-(5-oxo-4,5-dihydro-1,3,4-oxadiazol-2-yl)propyl)pyridine-2-sulfonamide], the IC50 stood at 160 nM.
The value for `COc1cc(Br)ccc1S(=O)(=O)N[C@H](c1n[nH]c(=O)o1)[C@H](C)c1cccc2c1CCC2` [Example 137, 4-bromo-N-((1S,2R)-2-(2,3-dihydro-1H-inden-4-yl)-1-(5-oxo-4,5-dihydro-1,3,4-oxadiazol-2-yl)propyl)-2-methoxybenzenesulfonamide] was 590 nM; that for `COc1c(S(=O)(=O)N[C@H](c2n[nH]c(=O)o2)[C@H](C)c2cccc(C)c2C)ccc(Cl)c1C(C)O` (stereo partly drawn) [Example 203, 4-chloro-N-((1S,2R)-2-(2,3-dimethylphenyl)-1-(5-oxo-4,5-dihydro-1,3,4-oxadiazol-2-yl)propyl)-3-(1-hydroxyethyl)-2-methoxybenzenesulfonamide] was 180 nM.
The result for `Cc1ccc(F)c([C@@H](C)[C@H](NS(=O)(=O)c2ccc3[nH]nnc3c2)c2n[nH]c(=O)o2)c1C` [Example 181, N-((1S,2R)-2-(6-fluoro-2,3-dimethylphenyl)-1-(5-oxo-4,5-dihydro-1,3,4-oxadiazol-2-yl)propyl)-1H-benzo[d][1,2,3]triazole-5-sulfonamide] reads 660 nM.
